Results on 16 compounds are retold here after patent publication US20260226068A1, “IMIDAZOTRIAZINE IL-17A MODULATORS AND USES THEREOF” (DICE ALPHA, INC., priority 2023, published 2026).

One experiment deals with T1, IL-17A/A (Homo sapiens, UniProt Q16552).
T1 construct: purchased Genscript Z03228
T1 sequence (Q16552 24-155): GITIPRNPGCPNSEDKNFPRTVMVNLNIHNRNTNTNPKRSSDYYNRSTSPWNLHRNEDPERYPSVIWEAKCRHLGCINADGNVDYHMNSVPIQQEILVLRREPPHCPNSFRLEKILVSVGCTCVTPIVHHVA
The experiment is described as follows: IL-17A/A HEK-Blue cell assay (SEAP reporter). The class given is cell-based. The note with it: HEK-Blue IL-17A reporter cells, IL17A/A 5 ng/mL, 20 hours, SEAP read at A630; read-out: HEK-Blue IL17AA (IC50 for IL-17A/A inhibition).

The target in another experiment is T2, IL-17A/F (Homo sapiens, UniProt Q16552+Q96PD4).
T2 construct: purchased R&D Systems
T2 sequence (Q16552 24-155): T1 sequence (Q16552 24-155)
T2 sequence (Q96PD4 31-163): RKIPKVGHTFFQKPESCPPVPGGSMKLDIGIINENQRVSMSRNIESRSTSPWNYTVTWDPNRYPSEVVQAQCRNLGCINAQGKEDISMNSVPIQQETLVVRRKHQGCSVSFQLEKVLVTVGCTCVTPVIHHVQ
The experiment can be described thus: IL-17A/F HEK-Blue cell assay (SEAP reporter). The class given is cell-based. To be noted: HEK-Blue IL-17A reporter cells, IL17A/F 5 ng/mL, 20 hours, SEAP read at A630; read-out: HEK-Blue IL17AF (IC50 for IL-17A/F inhibition).

In the case of `CCn1nccc1C(=O)N[C@H](c1cn2nc(C[C@H]3C[C@@H](C(F)(F)F)CNC3=O)c(CN(C)CC(F)(F)F)nc2n1)C1CCC(F)(F)CC1` [Compound 335, N—((S)-(4,4-difluorocyclohexyl)(3-((methyl(2,2,2-trifluoroethyl)amino)methyl)-2-(((3R,5R)-2-oxo-5-(trifluoromethyl)piperidin-3-yl)methyl)imidazo[1,2-b][1,2,4]triazin-6-yl)methyl)-1-ethyl-1H-pyrazole-5-carboxamide], the IC50 on IL-17A/A was under 0.1 µM; on IL-17A/F it was 0.1 to 1 µM.

For `CCn1nccc1C(=O)N[C@H](c1cn2nc(C[C@H]3C[C@@H](C(F)(F)F)CNC3=O)c(CN3CC(C(F)(F)F)C3)nc2n1)C1CCC(F)(F)CC1` [Compound 336, N—((S)-(4,4-difluorocyclohexyl)(2-(((3R,5R)-2-oxo-5-(trifluoromethyl)piperidin-3-yl)methyl)-3-((3-(trifluoromethyl)azetidin-1-yl)methyl)imidazo[1,2-b][1,2,4]triazin-6-yl)methyl)-1-ethyl-1H-pyrazole-5-carboxamide], the IC50 is under 0.1 µM on IL-17A/A and 0.1 to 1 µM at IL-17A/F.

As for `CCn1nccc1C(=O)N[C@H](c1cn2nc(C[C@H]3C[C@@H](C(F)(F)F)CNC3=O)c(CN3CC(C)(F)C3)nc2n1)C1CCC(F)(F)CC1` [Compound 337, N—((S)-(4,4-difluorocyclohexyl)(3-((3-fluoro-3-methylazetidin-1-yl)methyl)-2-(((3R,5R)-2-oxo-5-(trifluoromethyl)piperidin-3-yl)methyl)imidazo[1,2-b][1,2,4]triazin-6-yl)methyl)-1-ethyl-1H-pyrazole-5-carboxamide], the IC50 on IL-17A/A is under 0.1 µM; at IL-17A/F, over 1 µM.

`CCn1nccc1C(=O)N[C@H](c1cn2nc(C[C@H]3C[C@@H](C(F)(F)F)CNC3=O)c(CN3C(C)CC3C)nc2n1)C1CCC(F)(F)CC1` (stereo partly drawn) [Compound 338, N-((1S)-(4,4-difluorocyclohexyl)(3-((2,4-dimethylazetidin-1-yl)methyl)-2-(((3R,5R)-2-oxo-5-(trifluoromethyl)piperidin-3-yl)methyl)imidazo[1,2-b][1,2,4]triazin-6-yl)methyl)-1-ethyl-1H-pyrazole-5-carboxamide]: the values for the IC50 on IL-17A/A and at IL-17A/F were under 0.1 µM and over 1 µM, respectively.

Consider `CCn1nccc1C(=O)N[C@H](c1cn2nc(C[C@H]3C[C@@H](C(F)(F)F)CNC3=O)c(CN3CC4(CC4)C3)nc2n1)C1CCC(F)(F)CC1` [Compound 339, N—((S)-(3-((5-azaspiro[2.3]hexan-5-yl)methyl)-2-(((3R,5R)-2-oxo-5-(trifluoromethyl)piperidin-3-yl)methyl)imidazo[1,2-b][1,2,4]triazin-6-yl)(4,4-difluorocyclohexyl)methyl)-1-ethyl-1H-pyrazole-5-carboxamide], for which the IC50 at IL-17A/A is 0.1 to 1 µM; on IL-17A/F, over 1 µM.

As for `CCn1nccc1C(=O)N[C@H](c1cn2nc(C[C@H]3C[C@@H](C(F)(F)F)CNC3=O)c(CN3CC4(C3)CC(F)(F)C4)nc2n1)C1CCC(F)(F)CC1` [Compound 340, N—((S)-(3-((6,6-difluoro-2-azaspiro[3.3]heptan-2-yl)methyl)-2-(((3R,5R)-2-oxo-5-(trifluoromethyl)piperidin-3-yl)methyl)imidazo[1,2-b][1,2,4]triazin-6-yl)(4,4-difluorocyclohexyl)methyl)-1-ethyl-1H-pyrazole-5-carboxamide], the IC50 at IL-17A/A is under 0.1 µM; on IL-17A/F it was over 1 µM.

On to `CCn1nccc1C(=O)N[C@H](c1cn2nc(C[C@H]3C[C@@H](C(F)(F)F)CNC3=O)c(CN3CC4(C3)CC(O)(C(F)(F)F)C4)nc2n1)C1CCC(F)(F)CC1` [Compound 341, N—((S)-(4,4-difluorocyclohexyl)(3-((6-hydroxy-6-(trifluoromethyl)-2-azaspiro[3.3]heptan-2-yl)methyl)-2-(((3R,5R)-2-oxo-5-(trifluoromethyl)piperidin-3-yl)methyl)imidazo[1,2-b][1,2,4]triazin-6-yl)methyl)-1-ethyl-1H-pyrazole-5-carboxamide], for which the IC50 on IL-17A/A is under 0.1 µM; on IL-17A/F, over 1 µM.

As for `CCn1nccc1C(=O)N[C@H](c1cn2nc(C[C@H]3C[C@@H](C(F)(F)F)CNC3=O)c(CN3CCC(C)(C)C3)nc2n1)C1CCC(F)(F)CC1` [Compound 342, N—((S)-(4,4-difluorocyclohexyl)(3-((3,3-dimethylpyrrolidin-1-yl)methyl)-2-(((3R,5R)-2-oxo-5-(trifluoromethyl)piperidin-3-yl)methyl)imidazo[1,2-b][1,2,4]triazin-6-yl)methyl)-1-ethyl-1H-pyrazole-5-carboxamide], the IC50 is 0.1 to 1 µM at IL-17A/A and over 1 µM on IL-17A/F.

Consider `CCn1nccc1C(=O)N[C@H](c1cn2nc(C[C@H]3C[C@@H](C(F)(F)F)CNC3=O)c(CN3CCCC3C)nc2n1)C1CCC(F)(F)CC1` (stereo partly drawn) [Compound 343, N-((1S)-(4,4-difluorocyclohexyl)(3-((2-methylpyrrolidin-1-yl)methyl)-2-(((3R,5R)-2-oxo-5-(trifluoromethyl)piperidin-3-yl)methyl)imidazo[1,2-b][1,2,4]triazin-6-yl)methyl)-1-ethyl-1H-pyrazole-5-carboxamide], for which the IC50 is under 0.1 µM at IL-17A/A and over 1 µM at IL-17A/F.

Regarding `CCn1nccc1C(=O)N[C@H](c1cn2nc(C[C@H]3C[C@@H](C(F)(F)F)CNC3=O)c(CN3CCC4(CC4)C3)nc2n1)C1CCC(F)(F)CC1` [Compound 344, N—((S)-(3-((5-azaspiro[2.4]heptan-5-yl)methyl)-2-(((3R,5R)-2-oxo-5-(trifluoromethyl)piperidin-3-yl)methyl)imidazo[1,2-b][1,2,4]triazin-6-yl)(4,4-difluorocyclohexyl)methyl)-1-ethyl-1H-pyrazole-5-carboxamide], the values for the IC50 on IL-17A/A and on IL-17A/F were 0.1 to 1 µM and over 1 µM, respectively.

Regarding `CCn1nccc1C(=O)N[C@H](c1cn2nc(C[C@H]3C[C@@H](C(F)(F)F)CNC3=O)c(CN3CCC(F)(F)CC3)nc2n1)C1CCC(F)(F)CC1` [Compound 345, N—((S)-(4,4-difluorocyclohexyl)(3-((4,4-difluoropiperidin-1-yl)methyl)-2-(((3R,5R)-2-oxo-5-(trifluoromethyl)piperidin-3-yl)methyl)imidazo[1,2-b][1,2,4]triazin-6-yl)methyl)-1-ethyl-1H-pyrazole-5-carboxamide], the IC50 at IL-17A/A was under 0.1 µM; at IL-17A/F it was over 1 µM.

`CCn1nccc1C(=O)N[C@H](c1cn2nc(C[C@H]3C[C@@H](C(F)(F)F)CNC3=O)c(CN3CCC4(CC3)CC4)nc2n1)C1CCC(F)(F)CC1` [Compound 346, N—((S)-(3-((6-azaspiro[2.5]octan-6-yl)methyl)-2-(((3R,5R)-2-oxo-5-(trifluoromethyl)piperidin-3-yl)methyl)imidazo[1,2-b][1,2,4]triazin-6-yl)(4,4-difluorocyclohexyl)methyl)-1-ethyl-1H-pyrazole-5-carboxamide]: the IC50 was under 0.1 µM on IL-17A/A and over 1 µM on IL-17A/F.

In the case of `CCn1nccc1C(=O)N[C@H](c1cn2nc(C[C@H]3C[C@@H](C(F)(F)F)CNC3=O)c(CN3CCCC4(CC4)C3)nc2n1)C1CCC(F)(F)CC1` [Compound 347, N—((S)-(3-((5-azaspiro[2.5]octan-5-yl)methyl)-2-(((3R,5R)-2-oxo-5-(trifluoromethyl)piperidin-3-yl)methyl)imidazo[1,2-b][1,2,4]triazin-6-yl)(4,4-difluorocyclohexyl)methyl)-1-ethyl-1H-pyrazole-5-carboxamide], the IC50 is under 0.1 µM at IL-17A/A and over 1 µM on IL-17A/F.

Consider `CCn1nccc1C(=O)N[C@H](c1cn2nc(C[C@H]3C[C@@H](C(F)(F)F)CNC3=O)c(CN3CC4CC(C3)C4(F)F)nc2n1)C1CCC(F)(F)CC1` [Compound 348, N-((1S)-(3-((6,6-difluoro-3-azabicyclo[3.1.1]heptan-3-yl)methyl)-2-(((3R,5R)-2-oxo-5-(trifluoromethyl)piperidin-3-yl)methyl)imidazo[1,2-b][1,2,4]triazin-6-yl)(4,4-difluorocyclohexyl)methyl)-1-ethyl-1H-pyrazole-5-carboxamide], for which the figures for the IC50 at IL-17A/A and on IL-17A/F were under 0.1 µM and 0.1 to 1 µM, respectively.

For `CCn1nccc1C(=O)N[C@H](c1cn2nc(C[C@H]3C[C@@H](C(F)(F)F)CNC3=O)c(CN3CCOC(C)C3)nc2n1)C1CCC(F)(F)CC1` (stereo partly drawn) [Compound 349, N-((1S)-(4,4-difluorocyclohexyl)(3-((2-methylmorpholino)methyl)-2-(((3R,5R)-2-oxo-5-(trifluoromethyl)piperidin-3-yl)methyl)imidazo[1,2-b][1,2,4]triazin-6-yl)methyl)-1-ethyl-1H-pyrazole-5-carboxamide], the IC50 at IL-17A/A was under 0.1 µM; on IL-17A/F, over 1 µM.

On to `CCn1nccc1C(=O)N[C@H](c1cn2nc(C[C@H]3C[C@@H](C(F)(F)F)CNC3=O)c(CN3CCOC(C)(C)C3)nc2n1)C1CCC(F)(F)CC1` [Compound 351, N—((S)-(4,4-difluorocyclohexyl)(3-((2,2-dimethylmorpholino)methyl)-2-(((3R,5R)-2-oxo-5-(trifluoromethyl)piperidin-3-yl)methyl)imidazo[1,2-b][1,2,4]triazin-6-yl)methyl)-1-ethyl-1H-pyrazole-5-carboxamide], for which the IC50 on IL-17A/A was under 0.1 µM; at IL-17A/F it was over 1 µM.
